Measurements published in US12527774B2, “Estrogen-related receptor alpha modulators” (LEAD PHARMA HOLDING B.V., priority 2019, dated 2026).

These molecules were tested against ERRα ligand binding domain (ERRα-LBD) (Homo sapiens (Human), UniProt P11474) (assay: ERRα AlphaScreen Assay). Conditions: disruption of binding of ERRα-LBD protein to biotin-PGC1α-3 co-activator peptide.
Type: biochemical
Source text: This assay was based on the knowledge that nuclear receptors interact with cofactors in a ligand dependent matter. The sites of interaction have been mapped to LXXLL motifs that are present in the co-activator sequences. Short peptide sequences that contain the LXXLL motif mimic the behavior of full length co-activators.
The ERRα AlphaScreen Assay described here relies on the interaction of the co-activator peptide with purified bacterial-expressed ERRα ligand binding domain (ERRα-LBD); upon ligand binding the ERRα protein can undergo a conformational change resulting in a loss of co-activator binding.
Compounds of the present invention were tested for their ability to disrupt binding of ERRα-LBD protein to co-activator peptide using AlphaScreen® Technology (Perkin Elmer). ERRα-LBD protein was expressed in E. coli as a 6×His Small Ubiquitin-like Modifier (SUMO) fusion. Bacterial expressed 6His-SUMO-ERRα-LBD protein was purified using affinity chromatography. All experiments were performed at room temperature in 384-well white non-binding plates (Greiner) using 50 mM Tris-HCl pH 7.5, 100 mM NaCl, 0,1% Pluronic F-127, 0.05% BSA and 5 mM TCEP as the buffer. Final DMSO concentration was 1% in the assay. Compounds were assayed in triplicate and: incubated with 0.81 nM ERRα-LBD protein and 10 μg/mL streptavidin donor beads and 10 μg/mL Ni-chelate acceptor beads for 1 hour at room temperature; followed by a 2-hour incubation with 15 nM biotin-PGC1α-3 peptide (QRRPCSELLKYLTTNDDPP) corresponding to amino acids 202 to 220.
The AlphaScreen signal was measured using an Envision Xcite plate reader (Perkin Elmer). Data was normalized, and curve fitting analysis was performed in GraphPad Prism 7 using a four-parameter dose-response fit.
As multiple IC50 values were annotated for the same compound-protein pair, a mean pIC50 for each compound was determined.

ERRα ligand binding domain (ERRα-LBD), sequence (P11474 193-421): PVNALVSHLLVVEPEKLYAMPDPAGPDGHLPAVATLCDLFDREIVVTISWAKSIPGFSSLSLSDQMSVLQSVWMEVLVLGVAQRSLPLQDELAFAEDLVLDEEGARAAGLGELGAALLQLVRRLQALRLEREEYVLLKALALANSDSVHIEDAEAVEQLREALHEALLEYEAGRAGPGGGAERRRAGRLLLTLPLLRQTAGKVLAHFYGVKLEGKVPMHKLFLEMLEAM

mean pIC50	SMILES
≥ 8	COc1cc(C2CC(=O)Nc3n[nH]cc32)ccc1OCc1ccc(C(C)=O)cc1C(F)(F)F (centres unmarked) [Example 41, 4-(4-{[4-acetyl-2-(trifluoromethyl)phenyl]methoxy}-3-methoxyphenyl)-2H,4H,5H,6H, 7H-pyrazolo[3,4-b]pyridin-6-one]
≥ 8	COC(=O)c1ccc(COc2ccc(C3CC(=O)Nc4n[nH]cc43)cc2OC)c(C(F)(F)F)c1 (centres unmarked) [Example 42, methyl 4-[(2-methoxy-4-{6-oxo-2H,4H,5H,6H,7H-pyrazolo[3,4-b]pyridin-4-yl}phenoxy)methyl]-3-(trifluoromethyl)benzoate]

Same assay, conditions: disruption of binding of ERRα-LBD protein to biotin-PGC1α-3 co-activator peptide; read-out: mean pIC50 (converted)

IC50	SMILES
0.1 to 1 µM	COc1cc(C2CC(=O)Nc3n[nH]cc32)ccc1OCc1cc(Cl)cc(Cl)c1Cl (centres unmarked) [Example 31, 4-{3-methoxy-4-[(2,3,5-trichlorophenyl)methoxy]phenyl}-2H,4H,5H,6H,7H-pyrazolo[3,4-b]pyridin-6-one]
0.01 to 0.1 µM	COc1cc(C2CC(=O)Nc3n[nH]cc32)ccc1OCc1ccc([N+](=O)[O-])cc1C(F)(F)F (centres unmarked) [Example 34, 4-(3-methoxy-4-{[4-nitro-2-(trifluoromethyl)phenyl]methoxy}phenyl)-2H,4H,5H,6H,7H-pyrazolo[3,4-b]pyridin-6-one]
0.01 to 0.1 µM	COc1ccc(C(F)(F)F)c(COc2ccc(C3CC(=O)Nc4n[nH]cc43)cc2OC)c1 (centres unmarked) [Example 35, 4-(3-methoxy-4-{[5-methoxy-2-(trifluoromethyl)phenyl]methoxy}phenyl)-2H,4H,5H,6H,7H-pyrazolo[3,4-b]pyridin-6-one]
0.1 to 1 µM	COc1cc(C2CC(=O)Nc3n[nH]cc32)ccc1OCc1ccc(S(C)(=O)=O)cc1C(F)(F)F (centres unmarked) [Example 37, 4-(4-{[4-methanesulfonyl-2-(trifluoromethyl)phenyl]methoxy}-3-methoxyphenyl)-2H,4H,5H,6H,7H-pyrazolo[3,4-b]pyridin-6-one]
0.1 to 1 µM	COc1cc(C2CC(=O)Nc3n[nH]cc32)ccc1OCc1cccc(OC)c1OC (centres unmarked) [Example 39, 4-{4-[(2,3-dimethoxyphenyl)methoxy]-3-methoxyphenyl}-2H,4H,5H,6H,7H-pyrazolo[3,4-b]pyridin-6-one]
0.01 to 0.1 µM	COc1cc(C2CC(=O)Nc3n[nH]cc32)ccc1OCc1cc2c(cc1Br)OCO2 (centres unmarked) [Example 43, 4-{4-[(6-bromo-2H-1,3-benzodioxol-5-yl)methoxy]-3-methoxyphenyl}-2H,4H,5H,6H, 7H-pyrazolo[3,4-b]pyridin-6-one]
0.01 to 0.1 µM	C#Cc1ccccc1COc1ccc(C2CC(=O)Nc3n[nH]cc32)cc1OC (centres unmarked) [Example 44, 4-{4-[(2-ethynylphenyl)methoxy]-3-methoxyphenyl}-2H,4H,5H,6H,7H-pyrazolo[3,4-b]pyridin-6-one]
0.01 to 0.1 µM	COc1cc(C2CC(=O)Nc3n[nH]cc32)ccc1OCc1cccc2ccsc12 (centres unmarked) [Example 45, 4-{4-[(1-benzothiophen-7-yl)methoxy]-3-methoxyphenyl}-2H,4H,5H,6H, 7H-pyrazolo[3,4-b]pyridin-6-one]
0.1 to 1 µM	COc1cc(C2CC(=O)Nc3n[nH]cc32)ccc1OCc1cccc2c1OC(C)(C)C2 (centres unmarked) [Example 46, 4-{4-[(2,2-dimethyl-2,3-dihydro-1-benzofuran-7-yl)methoxy]-3-methoxyphenyl}-2H,4H,5H,6H, 7H-pyrazolo[3,4-b]pyridin-6-one]
0.1 to 1 µM	COc1cc(C2CC(=O)Nc3n[nH]cc32)ccc1OCc1cccc2cccnc12 (centres unmarked) [Example 47, 4-{3-methoxy-4-[(quinolin-8-yl)methoxy]phenyl}-2H,4H,5H,6H, 7H-pyrazolo[3,4-b]pyridin-6-one]
0.1 to 1 µM	CCOC(=O)c1ccccc1COc1ccc(C2CC(=O)Nc3n[nH]cc32)cc1OC (centres unmarked) [Example 48, ethyl 2-[(2-methoxy-4-{6-oxo-2H,4H,5H, 6H,7H-pyrazolo[3,4-b]pyridin-4-yl}phenoxy)methyl]benzoate]
0.1 to 1 µM	COc1cc(C2CC(=O)Nc3n[nH]cc32)ccc1OCc1ccccc1C(F)F (centres unmarked) [Example 49, 4-(4-{[2-(difluoromethyl)phenyl]methoxy}-3-methoxyphenyl)-2H,4H,5H,6H, 7H-pyrazolo[3,4-b]pyridin-6-one]
0.1 to 1 µM	COc1cc(C2CC(=O)Nc3n[nH]cc32)ccc1OCc1ccncc1C(F)(F)F (centres unmarked) [Example 50, 4-(3-methoxy-4-{[3-(trifluoromethyl)pyridin-4-yl]methoxy}phenyl)-2H,4H,5H,6H,7H-pyrazolo[3,4-b]pyridin-6-one]
0.1 to 1 µM	COc1cc(C2CC(=O)Nc3n[nH]cc32)ccc1OCc1cccc2c1OCCCO2 (centres unmarked) [Example 51, 4-{4-[(3,4-dihydro-2H-1,5-benzodioxepin-6-yl)methoxy]-3-methoxyphenyl}-2H,4H,5H, 6H, 7H-pyrazolo[3,4-b]pyridin-6-one]
0.1 to 1 µM	O=C1CC(c2ccc(OCc3ccccc3Br)cc2)c2c[nH]nc2N1 (centres unmarked) [Example 58, 4-{4-[(2-bromophenyl)methoxy]phenyl}-2H,4H,5H,6H,7H-pyrazolo[3,4-b]pyridin-6-one]
0.01 to 0.1 µM	O=C1CC(c2ccc(OCc3ccccc3C(F)(F)F)cc2)c2c[nH]nc2N1 (centres unmarked) [Example 59, 4-(4-{[2-(trifluoromethyl)phenyl]methoxy}phenyl)-2H,4H,5H,6H,7H-pyrazolo[3,4-b]pyridin-6-one]
0.1 to 1 µM	O=C1CC(c2ccc(OCc3ccccc3Cl)cc2)c2c[nH]nc2N1 (centres unmarked) [Example 60, 4-{4-[(2-chlorophenyl)methoxy]phenyl}-2H,4H,5H,6H,7H-pyrazolo[3,4-b]pyridin-6-one]
0.1 to 1 µM	O=C1CC(c2ccc(OCc3ccccc3C(F)(F)F)cn2)c2c[nH]nc2N1 (centres unmarked) [Example 63, 4-(5-{[2-(trifluoromethyl)phenyl]methoxy}pyridin-2-yl)-2H,4H,5H,6H, 7H-pyrazolo[3,4-b]pyridin-6-one]
0.01 to 0.1 µM	COc1cc(OCc2ccccc2C(F)(F)F)ccc1C1CC(=O)Nc2n[nH]cc21 (centres unmarked) [Example 64, 4-(2-methoxy-4-{[2-(trifluoromethyl)phenyl]methoxy}phenyl)-2H,4H,5H,6H,7H-pyrazolo[3,4-b]pyridin-6-one]
0.01 to 0.1 µM	COC(=O)c1cc(C2CC(=O)Nc3n[nH]cc32)ccc1OCc1ccccc1C(F)(F)F (centres unmarked) [Example 65, methyl 5-{6-oxo-2H,4H,5H,6H,7H-pyrazolo[3,4-b]pyridin-4-yl}-2-{[2-(trifluoromethyl)phenyl]methoxy}benzoate]
0.1 to 1 µM	O=C1CC(c2ccc(OCc3ccccc3C(F)(F)F)cc2F)c2c[nH]nc2N1 (centres unmarked) [Example 66, 4-(2-fluoro-4-{[2-(trifluoromethyl)phenyl]methoxy}phenyl)-2H,4H,5H,6H, 7H-pyrazolo[3,4-b]pyridin-6-one]
0.1 to 1 µM	O=C1CC(c2ccc(OCc3ccccc3C(F)(F)F)c([N+](=O)[O-])c2)c2c[nH]nc2N1 (centres unmarked) [Example 67, 4-(3-nitro-4-{[2-(trifluoromethyl)phenyl]methoxy}phenyl)-2H,4H,5H,6H,7H-pyrazolo[3,4-b]pyridin-6-one]
0.01 to 0.1 µM	O=C1CC(c2ccc(OCc3ccccc3C(F)(F)F)c(OC(F)(F)F)c2)c2c[nH]nc2N1 (centres unmarked) [Example 69, 4-[3-(trifluoromethoxy)-4-{[2-(trifluoromethyl)phenyl]methoxy}phenyl]-2H,4H,5H, 6H, 7H-pyrazolo[3,4-b]pyridin-6-one]
0.01 to 0.1 µM	O=C1CC(c2ccc(OCc3ccccc3C(F)(F)F)c(Br)c2)c2c[nH]nc2N1 (centres unmarked) [Example 70, 4-(3-bromo-4-{[2-(trifluoromethyl)phenyl]methoxy}phenyl)-2H,4H,5H,6H, 7H-pyrazolo[3,4-b]pyridin-6-one]
